Experimental data as given in BindingDB's records for doi:10.1021/jm801063n (University of Auckland, 2009).

Experiment: Inhibition of recombinant perforin-mediated lysis of human Jurkat T cells by 51Cr release assay

Compared with `Cc1cc2c(c(=O)[nH]1)C(=O)N/C2=C\c1ccc(-c2ccccc2)s1` [(Z)-6-Methyl-1-((5-phenylthiophen-2-yl)methylene)-1H-pyrrolo[3,4-c]pyridine-3,4(2H,5H)-dione], `Cc1cc2c(c(=O)[nH]1)C(=O)O/C2=C\c1ccc(-c2ccccc2)s1` [(Z)-6-Methyl-1-((5-phenylthiophen-2-yl)methylene)furo[3,4-c]pyridine-3,4(1H,5H)-dione] is lower in IC50: over 20 µM for the first, 5 µM for the second. The second is the more potent here.

Compared with `Cc1cc2c(c(=S)[nH]1)C(=O)O/C2=C\c1ccc(-c2ccccc2)s1` [(Z)-6-Methyl-1-((5-phenylthiophen-2-yl)methylene)-4-thioxo-4,5-dihydrofuro[3,4-c]pyridin-3(1H)-one], `Cc1cc2c(c(=S)[nH]1)C(=O)O/C2=C\c1csc(-c2ccccc2)c1` [(Z)-6-Methyl-1-((5-phenylthiophen-3-yl)methylene)-4-thioxo-4,5-dihydrofuro[3,4-c]pyridin-3(1H)-one] is higher in IC50: 3.4 µM for the first, over 20 µM for the second.

First: Cc1cc2c(c(=S)[nH]1)C(=O)O/C2=C\c1cccs1 [(Z)-6-Methyl-1-(thiophen-2-ylmethylene)-4-thioxo-4,5-dihydrofuro[3,4-c]pyridin-3(1H)-one]
Second: Cc1cc2c(c(=S)[nH]1)C(=O)O/C2=C\c1ccsc1 [(Z)-6-Methyl-1-(thiophen-3-ylmethylene)-4-thioxo-4,5-dihydrofuro[3,4-c]pyridin-3(1H)-one]
The IC50 of the first is lower: 8.6 µM for the first, over 20 µM for the second. The first is the more potent here.

`Cc1cc2c(c(=S)[nH]1)C(=O)O/C2=C\c1ccc(OC(F)(F)F)cc1` [(Z)-6-Methyl-4-thioxo-1-(4-(trifluoromethoxy)benzylidene)-4,5-dihydrofuro[3,4-c]pyridin-3(1H)-one] and `Cc1cc2c(c(=S)[nH]1)C(=O)O/C2=C\c1ccc(C(F)(F)F)cc1` [(Z)-6-Methyl-4-thioxo-1-(4-(trifluoromethyl)benzylidene)-4,5-dihydrofuro[3,4-c]pyridin-3(1H)-one] cannot be ordered by IC50: over 20 µM for the first, over 20 µM for the second.

`CC(=O)Nc1ccc(/C=C2\OC(=O)c3c2cc(C)[nH]c3=S)cc1` [(Z)-N-(4-((6-Methyl-3-oxo-4-thioxo-4,5-dihydrofuro[3,4-c]pyridin-1(3H)-ylidene)methyl)phenyl)acetamide] gave an IC50 of over 20 µM.
